Laboratory results: paper PMC4578755, “Development of novel cellular histone-binding and chromatin-displacement assays for bromodomain drug discovery” (Epigenetics & Chromatin, 2015)

What was measured:
[1] = target: T1, TRIM24-PB binding to endogenous histone H3 in HeLa TRIM24-PB cells (Homo sapiens, UniProt O15164); experiment: Cellular TRIM24/histone H3 AlphaLISA binding assay; assay type: cell-based; settings: co-treated with SAHA, 2 h, 6 independent experiments, listed as TRIM24 inhibitor, read-out: Cell EC50 (AlphaLISA)
T1 construct: The FLAG-TRIM24-PB construct (residues 810–1050) was generated by PCR amplification; expressed in transfected cells
T1 sequence (O15164 810-1050): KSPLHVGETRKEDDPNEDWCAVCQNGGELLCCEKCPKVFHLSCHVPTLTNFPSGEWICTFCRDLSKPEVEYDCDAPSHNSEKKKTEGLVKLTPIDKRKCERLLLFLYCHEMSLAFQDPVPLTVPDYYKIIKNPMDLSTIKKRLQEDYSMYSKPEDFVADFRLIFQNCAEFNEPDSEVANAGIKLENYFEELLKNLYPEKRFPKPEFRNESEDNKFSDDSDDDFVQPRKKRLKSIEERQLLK
Protocol: Hela TRIM24-PB cells were maintained in DMEM medium supplemented with 10 % FBS and 5 µg/mL of Blasticidin. Cells were seeded (10,000/well, 40 µL) to 384-well white culture plates (PerkinElmer, #6007680) using a Multidrop 384 reagent dispenser (Thermo Scientific) and incubated overnight at 37 °C and 5 % CO2. On Day 2, the cells were co-treated with SAHA (10 µM) and test compound and incubated at 37 °C and 5 % CO2 for 2 h. The plates were washed twice with PBS (60 µL at RT) using a Biomek FX liquid handler (Beckman Coulter). […] Plates were read on Envision plate reader (PerkinElmer) using AlphaScreen protocol and all IC50 values (four-parameter logistic curve) were obtained using GraphPad Prism 6 software. […]
All EC50 values were calculated based on these POC values using four-parametric nonlinear regression (i.e., curve fitting) software (either Genedata Screener™ software version 11 or Graphpad Prism 6). For the cell-based AlphaLISA assay, the POC values were calculated using the following wells and process: (1) a “blank subtraction” was performed by subtracting the mean signal of the blank control wells (which contained media but lacked cells) from all of the measured values; (2) these corrected values were then used in the POC formula stated above. […] Average and standard Deviation (SD) values were calculated using the Harmony software (PerkinElmer). […]

[2] = test system: histone H3K23Ac mark in HeLa cells; experiment: H3K23 acetylation in HeLa cells (Western blot, anti-H3K23Ac immunostaining); assay type: cell-based; settings: 2 h
Protocol: Standard IF procedures were used. Briefly, cells were permeabilized (0.5 % Triton X-100 in PBS) for 15 min and incubated with blocking solution (DAKO #X0909) for 30 min. The following primary antibodies were used: goat anti-V5 (Bethyl #A190-119A) 1:200; mouse anti-FLAG (Sigma #F1804) 1:200; rabbit anti-BRD4 (Abcam #ab128874) 1:200; rabbit anti-TRIM24 (Proteintech #14208-1-AP) 1:400; rabbit anti-K3K23Ac (Cell Signaling #8848) 1:200, and mouse anti-histone H3 (Active Motif #39763) 1:4000. Alexa Fluor-conjugated secondary antibodies were from Invitrogen and Hoechst 33342 (Invitrogen, #H3570) was used for nuclei counterstaining (10 µg/ml). For each Alexa fluorochrome, images (4–10 fields per well; 20X magnifications) were acquired using the Operetta High-Content Screening System (PerkinElmer). Image analysis was performed in Harmony software (PerkinElmer) by selecting nuclei and cytoplasm in Hoechst channel. Gating for single cells of flat morphology was done based on nuclei area, roundness and intensity of Hoechst in the nucleus and in the cytoplasm. In every gated cell, the mean signal intensity value for each fluorochrome was calculated separately in nucleus and cytoplasm. The specific nuclear signal was estimated subtracting mean cytoplasmic value from nuclear; and average value was calculated using at least 1000 cells in each well.

SMILES | EC50 [1] | H3K23 acetylation (anti-H3K23Ac immunostaining) ([2]; 3 µM, HeLa control and TRIM24-PB cells) | Cellular histone H3K23Ac mark ([2]; HDAC inhibitor treatment, 2 µM, Western blot)
Cc1nc(S(=O)(=O)Nc2cc3c(cc2Oc2cccc(OCC(C)C)c2)n(C)c(=O)n3C)cn1C [IACS-6558, N-{1,3-dimethyl-6-[3-(2-methylpropoxy)phenoxy]-2-oxo-2,3-dihydro-1H-1,3-benzodiazol-5-yl}-1,2-dimethyl-1H-imidazole-4-sulfonamide] | 1300 nM |  | 
O=C(CCCCCCC(=O)Nc1ccccc1)NO [SAHA, Suberoylanilide Hydroxamic Acid] |  | maximal H3K23 acetylation | hyperacetylated
